Experimental data published in patent publication EP0221032A2, “Sodium salt of etodolic acid and process for its preparation” (priority 1985, dated 1987).
Counter-ions that a name gives are not always drawn. Like-named read-outs stand apart in the source and are kept apart here.

What was measured:
[1] = Stability in a 20% aqueous solution at various temperatures; assay type: physicochemical; details: for remaining at 720 h / remaining at 1440 h / remaining at 2160 h: water, read-out: Titre % (HPLC)
Description: (§1) The following tables No.1, 2 and 3 respectively show the stability data of sodium etodolate in aqueous solutions at 10% and 20% at various temperatures and again at 10% after sterilization in autoclave in a closed container.

[2] = Stability in a 10% aqueous solution at various temperatures; assay type: physicochemical; details: for remaining at 720 h / remaining at 1440 h / remaining at 2160 h: water, read-out: Titre % (HPLC)
Description: as §1

[3] = pH of aqueous solutions of the sodium salt; assay type: physicochemical
Description: The 20% solution has a pH of 8.7, while a 7.3% solution has a pH of 7.8.

[4] = Stability after sterilization at 120°C in autoclave for 20 min; assay type: physicochemical; details: 10% aqueous solution
Description: as §1

[5] = Colour and stability of aqueous solutions of the salts (quickened ageing tests); assay type: physicochemical; details: for colour of the solutions: aqueous solutions
Protocol: (§2) In order to avail oneself of a derivative usable in therapy, it is necessary, in fact, to obtain a highly soluble substance, also considering the doses of etodolic acid which have to be administered for getting an efficient therapeutic action (at least 200 mg twice a day in the adult).

[6] = Water solubility of etodolic acid and its salts; assay type: physicochemical; details: for solubility: water
Protocol: Etodolic acid was taken into consideration as a typical representative, particularly appreciated from the pharmacological point of view, of said derivatives and some typical salts thereof were prepared.
as §2

[7] = background statement on the free acid; cited from earlier work
[8] = after sterilization at 120°C in autoclave for 20 min, closed container

Q: Which Colour ([1]; 5°C, 1 month) does the source give for `CCc1cccc2c3c([nH]c12)C(CC)(CC(=O)O)OCC3` (centres unmarked) [sodium salt of etodolic acid, Sodium salt of etodolic acid] here?
A: unchanged

Q: And the pH ([1]; 5°C, 1 month)?
A: 8.7

Q: And the Colour ([1]; 5°C, 2 month)?
A: unchanged

Q: And the pH ([1]; 5°C, 2 month)?
A: 8.7

Q: And the Colour ([1]; 5°C, 3 month)?
A: unchanged

Q: And the pH ([1]; 5°C, 3 month)?
A: 8.6

Q: And the Colour ([1]; 25°C, 1 month)?
A: unchanged

Q: What about the pH ([1]; 25°C, 1 month) of the same compound?
A: 8.7

Q: And the Colour ([1]; 25°C, 2 month)?
A: unchanged

Q: What about the pH ([1]; 25°C, 2 month) of the same compound?
A: 8.6

Q: And the Colour ([1]; 25°C, 3 month)?
A: unchanged

Q: What about the pH ([1]; 25°C, 3 month) of the same compound?
A: 8.7

Q: And the Colour ([1]; 45°C, 1 month)?
A: unchanged

Q: And the pH ([1]; 45°C, 1 month)?
A: 8.6

Q: And the Colour ([1]; 45°C, 2 month)?
A: deep yellow

Q: What about the pH ([1]; 45°C, 2 month) of the same compound?
A: 8.7

Q: And the Colour ([1]; 45°C, 3 month)?
A: deep yellow

Q: And the pH ([1]; 45°C, 3 month)?
A: 8.7

Q: And the Colour ([1]; at starting point)?
A: pale yellow

Q: What about the “Titre % (HPLC)” value ([1]; at starting point) of the same compound?
A: 100%

Q: And the pH ([1]; at starting point)?
A: 8.7

Q: What about the remaining at 720 h ([1]; 5°C, 1 month) of the same compound?
A: 99%

Q: And the remaining at 1440 h ([1]; 5°C, 2 month)?
A: 100%

Q: What about the remaining at 2160 h ([1]; 5°C, 3 month) of the same compound?
A: 97%

Q: And the remaining at 720 h ([1]; 25°C, 1 month)?
A: 100%

Q: What about the remaining at 1440 h ([1]; 25°C, 2 month) of the same compound?
A: 99%

Q: And the remaining at 2160 h ([1]; 25°C, 3 month)?
A: 100%

Q: What about the remaining at 720 h ([1]; 45°C, 1 month) of the same compound?
A: 99%

Q: What about the remaining at 1440 h ([1]; 45°C, 2 month) of the same compound?
A: 98%

Q: And the remaining at 2160 h ([1]; 45°C, 3 month)?
A: 98%

Q: What about the Colour ([2]; 5°C, 1 month) of the same compound?
A: unchanged

Q: And the pH ([2]; 5°C, 1 month)?
A: 7.8

Q: And the Colour ([2]; 5°C, 2 month)?
A: unchanged

Q: And the pH ([2]; 5°C, 2 month)?
A: 7.8

Q: And the Colour ([2]; 5°C, 3 month)?
A: unchanged

Q: And the pH ([2]; 5°C, 3 month)?
A: 7.75

Q: And the Colour ([2]; 25°C, 1 month)?
A: unchanged

Q: And the pH ([2]; 25°C, 1 month)?
A: 7.8

Q: And the Colour ([2]; 25°C, 2 month)?
A: unchanged

Q: What about the pH ([2]; 25°C, 2 month) of the same compound?
A: 7.85

Q: What about the Colour ([2]; 25°C, 3 month) of the same compound?
A: unchanged

Q: And the pH ([2]; 25°C, 3 month)?
A: 7.8

Q: And the Colour ([2]; 45°C, 1 month)?
A: unchanged

Q: And the pH ([2]; 45°C, 1 month)?
A: 7.8

Q: What about the Colour ([2]; 45°C, 2 month) of the same compound?
A: unchanged

Q: And the pH ([2]; 45°C, 2 month)?
A: 7.8

Q: What about the Colour ([2]; 45°C, 3 month) of the same compound?
A: unchanged

Q: What about the pH ([2]; 45°C, 3 month) of the same compound?
A: 7.7

Q: And the Colour ([2]; at starting point)?
A: pale yellow

Q: And the “Titre % (HPLC)” value ([2]; at starting point)?
A: 100%

Q: And the pH ([2]; at starting point)?
A: 7.8

Q: What about the remaining at 720 h ([2]; 5°C, 1 month) of the same compound?
A: 99%

Q: What about the remaining at 1440 h ([2]; 5°C, 2 month) of the same compound?
A: 100%

Q: And the remaining at 2160 h ([2]; 5°C, 3 month)?
A: 100%

Q: And the remaining at 720 h ([2]; 25°C, 1 month)?
A: 100%

Q: What about the remaining at 1440 h ([2]; 25°C, 2 month) of the same compound?
A: 100%

Q: What about the remaining at 2160 h ([2]; 25°C, 3 month) of the same compound?
A: 99%

Q: And the remaining at 720 h ([2]; 45°C, 1 month)?
A: 100%

Q: What about the remaining at 1440 h ([2]; 45°C, 2 month) of the same compound?
A: 99%

Q: And the remaining at 2160 h ([2]; 45°C, 3 month)?
A: 100%

Q: What about the pH ([3]; 7.3% solution) of the same compound?
A: 7.8

Q: And the pH ([3]; 20% solution)?
A: 8.7

Q: What about the “Appearance of the solution” value [4, 8] of the same compound?
A: limpid

Q: What about the “Colour of the solution” value [4, 8] of the same compound?
A: pale yellow

Q: And the pH [4, 8]?
A: 7.8

Q: And the “Appearance of the solution” value ([4]; at starting-point)?
A: limpid

Q: And the “Colour of the solution” value ([4]; at starting-point)?
A: pale yellow

Q: And the “Titre % (HPLC)” value ([4]; at starting-point)?
A: 100%

Q: And the pH ([4]; at starting-point)?
A: 7.8

Q: What about the remaining at 20 min ([4]; water, after sterilization at 120°C in autoclave for 20 min, closed container, read-out: Titre (%) (HPLC)) of the same compound?
A: 100%

Q: And the “colour of the solutions” value [5]?
A: only fleebly yellow-coloured

Q: And the “stability of the solutions” value ([5]; during time)?
A: very stable during time

Q: What about the stability ([5]; most different storage and treatment conditions (summary of Tables 1-3)) of the same compound?
A: quite stable

Q: What about the “water solubility (in words)” value [6] of the same compound?
A: easily soluble in water

Q: And the solubility [6]?
A: exceed 20 % by weight

Q: What about the solubility ([6]; water-soluble) of the same compound?
A: > 200 mg/mL

Q: For `CCc1cccc2c3c([nH]c12)C(CC)(CC(=O)O)OCC3` (centres unmarked) [etodolic acid, 1,8-diethyl-1,3,4,9-tetrahydropyran-[3,4-b] indol-1-acetic acid], which “water solubility (in words)” value [7] is on record?
A: water-insoluble

Q: Which “colour of the solutions” value [5] does the source give for `CCc1cccc2c3c([nH]c12)C(CC)(CC(=O)O)OCC3` (centres unmarked) [potassium salt, reference compound] here?
A: deeply coloured

Q: What about the “stability of the solutions” value ([5]; quickened ageing tests) of the same compound?
A: not much stable

Q: And the solubility [6]?
A: 2%
